From PubChem BioAssay AID1949 (Southern Research Institute, 2009)
Converted amounts (≈) assume the structure as drawn. Results filed as inconclusive are left out. The source made the active and inactive calls. The rule behind the calls is not given here.

Tested on: M. tuberculosis H37Rv growth inhibition
Experiment: Confirmatory growth inhibition assay against Mycobacterium tuberculosis H37Rv, potency (AID 1949);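 note: bacteria grown 7 days with compound before Alamar blue readout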

Question: Which IC50 does the source give for `Cc1ccc(-c2csc3ncn(C(C)C(=O)OC4CCCCC4)c(=O)c23)cc1C` (centres undefined) here?
Answer: The IC50 was 1.52 µg/mL (≈ 3.7 µM).

Question: How did the IC50 turn out when `O=C(Oc1ccccc1)c1ccc(COC(=O)c2cc3ccccc3oc2=O)cc1` was run?
Answer: Its IC50 is > 50 µg/mL (inactive).

Question: How did the IC50 turn out when `CC(=O)N(C)c1ccc(OCC(O)Cn2c3ccc(Cl)cc3c3cc(Cl)ccc32)cc1` (centres undefined) was run?
Answer: Its IC50 is 2.96 µg/mL (≈ 6.47 µM).

Question: `COc1ccc(-c2csc(Nc3ccc(S(N)(=O)=O)cc3)n2)cc1` was tested. Which IC50 did it give?
Answer: Its IC50 is 3.73 µg/mL (≈ 10.3 µM).

Question: Which IC50 does the source give for `CCn1c(Sc2ncnc3ccccc23)nc2ccccc21` here?
Answer: Its IC50 is 2.77 µg/mL (≈ 9.04 µM).

Question: `CCOC(=O)C(C)Oc1ccc2c(=O)c(-c3ccc(Cl)cc3)coc2c1` (centres undefined) was tested. Which IC50 did it give?
Answer: The IC50 was > 50 µg/mL (inactive).

Question: For `COC(=O)C1=C(C)NC2=C(C(=O)CC(c3ccc(F)cc3)C2)C1c1ccccc1Cl` (centres undefined), which IC50 is on record?
Answer: The IC50 was 3.64 µg/mL (≈ 8.55 µM).

Question: With `Cc1ccnc(NC(=O)COc2ccc(C(C)(C)C)cc2Br)c1` as the compound, how does the IC50 read?
Answer: The IC50 was 5.61 µg/mL (≈ 14.9 µM).

Question: Which IC50 does the source give for `N#Cc1cc(Oc2ccc(OCc3ccccc3)cc2)c([N+](=O)[O-])cc1C#N` here?
Answer: Its IC50 is < 0.1 µg/mL.

Question: For `CC(=O)Oc1ccccc1C(=O)Nc1ccc(Br)cc1Cl`, which IC50 is on record?
Answer: The IC50 was 4.23 µg/mL (≈ 11.5 µM).

Question: `Clc1ccc(OCCCCn2ccnc2)c(Br)c1` was tested. Which IC50 did it give?
Answer: Its IC50 is 1.51 µg/mL (≈ 4.58 µM).

Question: Which IC50 does the source give for `Cc1cc(Oc2nc([N+](=O)[O-])nn2C)ccc1Cl` here?
Answer: The IC50 was 5.88 µg/mL (≈ 21.9 µM).

Question: For `COC(=O)c1ccc2nc(C)cc(Nc3ccc(OCc4ccccc4)cc3)c2c1`, which IC50 is on record?
Answer: Its IC50 is 1.2 µg/mL (≈ 3.01 µM).

Question: Which IC50 does the source give for `CCOC(=O)c1c(NC(=O)c2c(F)c(F)c(F)c(F)c2F)sc(C(=O)OC)c1C` here?
Answer: The IC50 was 0.37 µg/mL (≈ 0.846 µM).

Question: For `CCCCC(=O)NC(=S)Nc1ccc(N2CCN(C(=O)c3ccco3)CC2)c(Cl)c1`, which IC50 is on record?
Answer: Its IC50 is 0.67 µg/mL (≈ 1.49 µM).

Question: For `O=C(CCc1ccccc1)NC1C2CC3CC(C2)CC1C3` (centres undefined), which IC50 is on record?
Answer: The IC50 was 3.08 µg/mL (≈ 10.9 µM).

Question: For `CCc1cccc(OCC(=O)Nc2ccc([N+](=O)[O-])cc2)c1`, which IC50 is on record?
Answer: The IC50 was 11.7 µg/mL (≈ 39.1 µM).

Question: For `O=[N+]([O-])c1ncn(Cc2ccc(F)cc2Cl)n1`, which IC50 is on record?
Answer: Its IC50 is 6.92 µg/mL (≈ 27 µM).

Question: How did the IC50 turn out when `Cc1ccc(-c2nnc(SCC(=O)Nc3ccc([N+](=O)[O-])cc3)o2)cc1` was run?
Answer: Its IC50 is > 50 µg/mL (inactive).

Question: With `CC(C)c1ccc(OCC(=O)NNC(=S)NC(=O)c2ccco2)c(Br)c1` as the compound, how does the IC50 read?
Answer: Its IC50 is 0.25 µg/mL (≈ 0.568 µM).

Question: For `CN(C)c1ccc(NC(=O)c2ccncc2)cc1`, which IC50 is on record?
Answer: The IC50 was 2.89 µg/mL (≈ 12 µM).

Question: How did the IC50 turn out when `CCCCCn1c(NCc2cccs2)nc2ccccc21` was run?
Answer: The IC50 was 3.41 µg/mL (≈ 11.4 µM).

Question: With `Cc1cccc(C)c1OCC(=O)N/N=C/c1ccc(O)c([N+](=O)[O-])c1` as the compound, how does the IC50 read?
Answer: The IC50 was 0.36 µg/mL (≈ 1.05 µM).

Question: With `Cc1cc2ncn(Cc3ccc(C(C)C)cc3)c2cc1C` as the compound, how does the IC50 read?
Answer: Its IC50 is 0.91 µg/mL (≈ 3.27 µM).

Question: For `COC(=O)COc1cccc(NC(=O)c2ccc(Cl)cc2)c1`, which IC50 is on record?
Answer: Its IC50 is 0.21 µg/mL (≈ 0.657 µM).

Question: How did the IC50 turn out when `Cc1ccc2nc(-c3ccncc3)cc(C(=O)Nc3ccc(C(=O)N4CCCC4)cc3)c2c1` was run?
Answer: The IC50 was 8.89 µg/mL (≈ 20.4 µM).

Question: Which IC50 does the source give for `CCCCOc1ccc(C2c3c(oc4ccc(Br)cc4c3=O)C(=O)N2CCCN2CCOCC2)cc1` (centres undefined) here?
Answer: The IC50 was 3.77 µg/mL (≈ 6.79 µM).

Question: Which IC50 does the source give for `CCN(c1ccccc1)S(=O)(=O)c1ccc(NC(=O)Nc2ccc(Cl)cc2)cc1` here?
Answer: The IC50 was 5.77 µg/mL (≈ 13.4 µM).

Question: Which IC50 does the source give for `O=C(Nc1cccc([N+](=O)[O-])c1)Nc1ccc(Cl)c(C(F)(F)F)c1` here?
Answer: Its IC50 is 0.19 µg/mL (≈ 0.528 µM).

Question: For `CCOc1cc(CNCCO)cc(Br)c1OCc1ccc(Cl)cc1Cl`, which IC50 is on record?
Answer: The IC50 was 1.54 µg/mL (≈ 3.43 µM).

Question: For `Cc1cccc(-n2c(N)cc(=O)nc2SCC(=O)Nc2nc(-c3ccccc3)cs2)c1`, which IC50 is on record?
Answer: Its IC50 is 3.08 µg/mL (≈ 6.85 µM).

Question: How did the IC50 turn out when `Cc1cccc(NC(=O)Nc2ccc(C(F)(F)F)cc2)c1` was run?
Answer: Its IC50 is 8.07 µg/mL (≈ 27.4 µM).

Question: `Cc1ccc(Cl)c(OCC(O)Cn2cnc3cc(C)c(C)cc32)c1` (centres undefined) was tested. Which IC50 did it give?
Answer: The IC50 was 8.12 µg/mL (≈ 23.5 µM).

Question: `CC1(C)CC(=O)C2=C(C1)NC(Nc1nc3ccccc3o1)=NC2c1cccc(Br)c1` (centres undefined) was tested. Which IC50 did it give?
Answer: Its IC50 is 3.24 µg/mL (≈ 6.96 µM).

Question: How did the IC50 turn out when `COc1cc(Br)cc2cc(C(=O)Nc3cc(C(F)(F)F)ccc3Cl)c(=O)oc12` was run?
Answer: Its IC50 is > 50 µg/mL (inactive).

Question: For `COc1ccc(-c2cc(C(F)F)n3ncc(C(=O)NCCCn4ccnc4)c3n2)cc1`, which IC50 is on record?
Answer: Its IC50 is 8.99 µg/mL (≈ 21.1 µM).

Question: Which IC50 does the source give for `COc1ccccc1C(=O)NNC(=S)NC(=O)C1CCCCC1` here?
Answer: The IC50 was 3.02 µg/mL (≈ 9 µM).

Question: With `CC12CCC(C(=O)Nc3ccc(OC(F)(F)F)cc3)(CC1=O)C2(C)C` (centres undefined) as the compound, how does the IC50 read?
Answer: Its IC50 is 3.09 µg/mL (≈ 8.7 µM).

Question: How did the IC50 turn out when `Cc1cc(C)nc(/N=C(/N)Nc2ccc(OCc3ccccc3)cc2)n1` was run?
Answer: Its IC50 is 4.64 µg/mL (≈ 13.4 µM).

Question: `CCOC(=O)C(C)Oc1ccc2c(=O)c(Oc3ccccc3Cl)coc2c1` (centres undefined) was tested. Which IC50 did it give?
Answer: The IC50 was 8.87 µg/mL (≈ 22.8 µM).

Question: With `c1ccc2c(N3CCCCC3)nc(N3CCCC3)nc2c1` as the compound, how does the IC50 read?
Answer: The IC50 was 40.4 µg/mL (≈ 143 µM).

Question: For `Cc1ccc(S(=O)(=O)c2nc(S(=O)(=O)Cc3ccc([N+](=O)[O-])cc3)sc2Cl)cc1`, which IC50 is on record?
Answer: The IC50 was 1.04 µg/mL (≈ 2.2 µM).

Question: With `CCn1c2ccccc2c2cc(NC(=O)C34CCC(C)(C(=O)C3)C4(C)C)ccc21` (centres undefined) as the compound, how does the IC50 read?
Answer: Its IC50 is 11.5 µg/mL (≈ 29.7 µM).

Question: How did the IC50 turn out when `O=C(CCNc1ccc(Cc2ccncc2)cc1)c1ccc([N+](=O)[O-])cc1` was run?
Answer: The IC50 was 4.37 µg/mL (≈ 12.1 µM).
